# From patent US5482957A, “Azole derivatives, process for their preparation and their use” (Hoechst Aktiengesellschaft, priority 1991, dated 1996)
# Biological target: angiotensin II receptor
# Assay: Displacement of 125I- or 3H-angiotensin II from receptor preparations from various organs (liver, lung, adrenal gland, brain etc.)
# Format: binding
# Conditions: Table 1; radioligand displacement, 25° C., 90 min, pH 7.4
# Method: Alternatively, the affinity of the compounds of the formula I for the angiotensin II receptor can be determined by measurement of the ^125 I-angiotensin II or ^3 H-angiotensin II displacement of receptor preparations from various organs (liver, lung, adrenal gland, brain etc.).
# To this end, the prepared membranes are suspended in an incubation buffer ([…], pH 7.4, containing 135 mM NaCl, 10 mM KCl, 10 mM MgCl2, 5 mM glucose, 0.2% bovine serum albumin and the protease inhibitors PMSF, 0.3 mM, and bacitracin, 0.1 mM) and incubated at 25° C. for 90 min together with the radioactively labeled angiotensin II and various concentrations of the compounds to be tested. Bound and free radioligand are then separated by filtration through micro glass fiber filters (GF51, Schleicher and Schull) in a cell collector (SKATRON).
# The degree of displacement of the radioligand from the receptor by the test compounds is determined by measurement of the receptor-bound radioactivity on the filters by means of a beta- or gamma-spectrometer. The amount of the displacement of the radioligand from the receptor by the test compounds is indicated by the IC50, i.e. the concentration of the inhibitor which displaces 50% of the bound radioligand from the receptor. The calculation of the IC50 values is carried out by means of PC software (LIGAND, G. A. McPherson 1985, Elsevier BIOSOFT, 68 Hills Road, Cambridge, CB2 1LA, UK.).
row,IC50 [nM],SMILES
1,1.5,CCCCc1nc(SC)c(C(=O)O)n1Cc1ccc(-c2ccccc2S(=O)(=O)NC(=O)OCCc2ccccc2)cc1 [Example 152]
2,0.88,C=CCCOC(=O)NS(=O)(=O)c1ccccc1-c1ccc(Cn2c(CCCC)nc(SC)c2C(=O)O)cc1 [Example 153]
3,1.8,C#CCCOC(=O)NS(=O)(=O)c1ccccc1-c1ccc(Cn2c(CCCC)nc(SC)c2C(=O)O)cc1 [Example 154]
4,6,CCCCc1nc(SC)c(C(=O)O)n1Cc1ccc(-c2ccccc2S(=O)(=O)NC(=O)OCC2CC2)cc1 [Example 155]
5,4.7,CCCCc1nc(SC)c(C(=O)OCC)n1Cc1ccc(-c2ccccc2S(=O)(=O)NC(=O)OCCOC(C)C)cc1 [Example 156]
6,1.4,CCCCc1nc(SC)c(C(=O)O)n1Cc1ccc(-c2ccccc2S(=O)(=O)NC(=O)OCCOC(C)C)cc1 [Example 157]
7,8.7,CCCCc1nc(SC)c(C(=O)OCC)n1Cc1ccc(-c2ccccc2S(=O)(=O)NC(=O)OCc2cccs2)cc1 [Example 159]
8,0.73,CCCCc1nc(SC)c(C(=O)O)n1Cc1ccc(-c2ccccc2S(=O)(=O)NC(=O)OCc2cccs2)cc1 [Example 160]
9,57,CCCCc1nc(SC)c(C(=O)OCC)n1Cc1ccc(-c2ccccc2S(=O)(=O)NC(=O)OCC=Cc2ccccc2)cc1 [Example 161]
10,3.9,CCCCc1nc(SC)c(C(=O)O)n1Cc1ccc(-c2ccccc2S(=O)(=O)NC(=O)OCC=Cc2ccccc2)cc1 [Example 162]
11,3.7,CCCCc1nc(SC)c(C(=O)OCC)n1Cc1ccc(-c2ccccc2S(=O)(=O)NC(=O)OCc2cccs2)cc1 [Example 163]
12,0.86,CCCCc1nc(SC)c(C(=O)O)n1Cc1ccc(-c2ccccc2S(=O)(=O)NC(=O)OCc2cccs2)cc1 [Example 164]
13,2.3,CCCCc1nc(SC)c(C(=O)O)n1Cc1ccc(-c2ccccc2S(=O)(=O)NC(=O)OCC=C(C)C)cc1 [Example 165]
14,1.2,C=C(C)COC(=O)NS(=O)(=O)c1ccccc1-c1ccc(Cn2c(CCCC)nc(SC)c2C(=O)O)cc1 [Example 166]
15,4,C=CCCCOC(=O)NS(=O)(=O)c1ccccc1-c1ccc(Cn2c(CCCC)nc(SC)c2C(=O)O)cc1 [Example 167]
16,7,CCCCc1nc(SC)c(C(=O)O)n1Cc1ccc(-c2ccccc2S(=O)(=O)NC(=O)OCC2CC=CCC2)cc1 (stereo not shown) [Example 168]
17,2.9,CC#CCOC(=O)NS(=O)(=O)c1ccccc1-c1ccc(Cn2c(CCCC)nc(SC)c2C(=O)O)cc1 [Example 169]
18,2.7,CCCCc1nc(SC)c(C(=O)OCC)n1Cc1ccc(-c2ccccc2S(=O)(=O)NC(=O)OCC)cc1 [Example 170]
19,0.7,CCCCc1nc(SC)c(C(=O)O)n1Cc1ccc(-c2ccccc2S(=O)(=O)NC(=O)OCC)cc1 [Example 171]
20,0.48,CCCCc1nc(SC)c(C(=O)O)n1Cc1ccc(-c2ccccc2S(=O)(=O)NC(=O)OCCOCc2ccccc2)cc1 [Example 172]
21,5.1,CCCCc1nc(SC)c(C(=O)OCC)n1Cc1ccc(-c2ccccc2S(=O)(=O)NC(=O)OC)cc1 [Example 174]
22,2.6,"CCCCc1nc(SC)c(C(=O)O)n1Cc1ccc(-c2ccccc2S(=O)(=O)NS(=O)(=O)N(C)C)cc1 [Example 179, 1-[1-(2'-dimethylsulfamoylaminosulfonylbiphenyl-4-yl)methyl]-2-n-butyl-4-methylthioimidazole-5-carboxylic acid]"
23,1,"C=CCOC(=O)NS(=O)(=O)c1ccccc1-c1ccc(Cn2c(CCCC)nc(SC)c2C(=O)O)cc1 [Example 181, 1-[(2'-allyloxycarbonylaminosulfonylbiphenyl-4-yl)methyl]-2-n-butyl-4-methylthioimidazole-5-carboxylic acid]"
24,1.7,"CCCCc1nc(SC)c(C(=O)O)n1Cc1ccc(-c2ccccc2S(=O)(=O)NC(=O)OCc2ccccc2)cc1 [Example 183, 1-[(2'-Benzyloxycarbonylaminosulfonylbiphenyl-4-yl)methyl]-2-n-butyl-4-methylthioimidazole-5-carboxylic acid]"
25,5.9,"CCCCc1nc(OC)c(C=O)n1Cc1ccc(-c2ccccc2S(=O)(=O)NC(=O)OCC)cc1 [Example 185, 1-{[(2'-Ethoxycarbonylaminosulfonyl)biphenyl-4-yl]-methyl}-2-n-butyl-4-methoxyimidazole-5-carbaldehyde]"
26,6.5,"CCCCc1nc(OC)c(C=O)n1Cc1ccc(-c2ccccc2S(=O)(=O)NC(=O)OCc2ccccc2)cc1 [Example 186, 1-{[(2'-Benzyloxycarbonylaminosulfonyl)biphenyl-4-]methyl}-2-n-butyl-4-methoxyimidazole-5-carbaldehyde]"
27,1.2,"CCCCc1ncc(C(=O)OCC)n1Cc1ccc(-c2ccccc2S(=O)(=O)NC(=O)NCc2ccccc2)cc1 [Example 187, Ethyl 1-{[(2'-benzylaminocarbonylaminosulfonyl)biphenyl-4-yl]methyl}-2-n-butylimidazole-5-carboxylate]"
28,22,"CCCCc1nc(SC)c(C(=O)O)n1Cc1ccc(-c2ccccc2S(=O)(=O)NS(=O)(=O)c2cccs2)cc1 [Example 190, 1-[(2'-{2-Thienylsulfonylaminosulfonyl}biphenyl-4-yl)methyl]-2-n-butyl-4-methylthioimidazole-5-carboxylic acid]"

# The next lines start with the compound.
row,SMILES,IC50 [nM]
1,CCCCc1nc(SC)c(C(=O)O)n1Cc1ccc(-c2ccccc2S(=O)(=O)NC(=O)Nc2ccc(F)cc2)cc1 [Example 101],2.4
2,CCCCc1nc(SC)c(C(=O)O)n1Cc1ccc(-c2ccccc2S(=O)(=O)NC(=O)Nc2ccccc2)cc1 [Example 102],2.3
3,CCCCc1nc(SC)c(C(=O)OCC)n1Cc1ccc(-c2ccccc2S(=O)(=O)NC(=O)NCCC)cc1 [Example 105],3
4,CCCCc1nc(SC)c(C(=O)O)n1Cc1ccc(-c2ccccc2S(=O)(=O)NC(=O)NCCN2CCOCC2)cc1 [Example 107],2.5
5,CCCCc1nc(SC)c(C(=O)O)n1Cc1ccc(-c2ccccc2S(=O)(=O)NC(=O)NCCC2CCCN2C)cc1 (stereo not shown) [Example 108],0.95
6,CCCCc1nc(SC)c(C(=O)O)n1Cc1ccc(-c2ccccc2S(=O)(=O)NC(=O)NCC2CC2)cc1 [Example 109],0.6
7,CCCCc1nc(SC)c(C(=O)OCC)n1Cc1ccc(-c2ccccc2S(=O)(=O)NC(=O)NCC2CC2)cc1 [Example 110],0.5
8,CCCCc1nc(SC)c(C(=O)O)n1Cc1ccc(-c2ccccc2S(=O)(=O)NC(=O)NCCCN2CCCCC2C)cc1 (stereo not shown) [Example 111],2.9
9,CCCCc1nc(SC)c(C(=O)O)n1Cc1ccc(-c2ccccc2S(=O)(=O)NC(=O)NCc2cccnc2)cc1 [Example 112],1.5
10,CCCCc1nc(SC)c(C(=O)O)n1Cc1ccc(-c2ccccc2S(=O)(=O)NC(=O)NCc2ccccn2)cc1 [Example 113],0.3
11,CCCCc1nc(SC)c(C(=O)O)n1Cc1ccc(-c2ccccc2S(=O)(=O)NC(=O)NCc2ccncc2)cc1 [Example 115],0.9
12,CCCCc1nc(SC)c(C(=O)O)n1Cc1ccc(-c2ccccc2S(=O)(=O)NC(=O)NCCCN2CCCC2=O)cc1 [Example 116],2.4
13,CCCCc1nc(SC)c(C(=O)OCC)n1Cc1ccc(-c2ccccc2S(=O)(=O)NC(=O)NCC2CCNCC2)cc1 [Example 117],1.2
14,CCCCc1nc(SC)c(C(=O)O)n1Cc1ccc(-c2ccccc2S(=O)(=O)NC(=O)N[C@H](CO)c2ccccc2)cc1 [Example 124],1.8
15,CCCCc1nc(SC)c(C(=O)O)n1Cc1ccc(-c2ccccc2S(=O)(=O)NC(=O)N[C@@H](CO)c2ccccc2)cc1 [Example 125],2.8
16,C=C[C@H](Cc1ccccc1)NC(=O)NS(=O)(=O)c1ccccc1-c1ccc(Cn2c(CCCC)nc(SC)c2C(=O)O)cc1 [Example 127],3
17,CCCCc1nc(SC)c(C(=O)OCC)n1Cc1ccc(-c2ccccc2S(=O)(=O)NC(=O)N[C@H](CO)Cc2ccccc2)cc1 [Example 128],5.6
18,CCCCc1nc(SC)c(C(=O)O)n1Cc1ccc(-c2ccccc2S(=O)(=O)NC(=O)N[C@H](CO)Cc2ccccc2)cc1 [Example 129],1.5
19,CCCCc1nc(SC)c(C(=O)OCC)n1Cc1ccc(-c2ccccc2S(=O)(=O)NC(=O)NCC2CCC3CC2C3(C)C)cc1 (stereo not shown) [Example 134],180
20,CCCCc1nc(SC)c(C(=O)O)n1Cc1ccc(-c2ccccc2S(=O)(=O)NC(=O)NCC2CCC3CC2C3(C)C)cc1 (stereo not shown) [Example 135],5.6
21,CCCCc1nc(SC)c(C(=O)OCC)n1Cc1ccc(-c2ccccc2S(=O)(=O)NC(=O)n2cccc2)cc1 [Example 138],1.7
22,CCCCc1nc(SC)c(C(=O)O)n1Cc1ccc(-c2ccccc2S(=O)(=O)NC(=O)n2cccc2)cc1 [Example 139],2.8
23,CCCCc1nc(SC)c(C(=O)OCC)n1Cc1ccc(-c2ccccc2S(=O)(=O)NC(=O)N2CCOCC2)cc1 [Example 140],8.2
24,CCCCc1nc(SC)c(C(=O)OCC)n1Cc1ccc(-c2ccccc2S(=O)(=O)NC(=O)N2CCCC2)cc1 [Example 141],4.4
25,CCCCc1nc(SC)c(C(=O)OCC)n1Cc1ccc(-c2ccccc2S(=O)(=O)NC(=O)N2CCSCC2)cc1 [Example 144],5.3
26,CCCCc1nc(SC)c(C(=O)OCC)n1Cc1ccc(-c2ccccc2S(=O)(=O)NC(=O)N2CCC(NC(=O)OC(C)(C)C)CC2)cc1 [Example 146],40
27,CCCCc1nc(SC)c(C(=O)OCC)n1Cc1ccc(-c2ccccc2S(=O)(=O)NC(=O)OCCc2ccccc2)cc1 [Example 151],0.4
